This note sets out measurements from patent publication US4992570A, “UCN-1028A and UCN-1028C and process for the production thereof” (Kyowa Hakko Kogyo Co., Ltd., priority 1987, dated 1991).

One data set has as its system MCF 7 cells. The experiment in a line: Anti-tumor activity: growth inhibition of MCF 7 cells (Neutral Red). In kind it is cell-based. As to conditions: Homo sapiens. The procedure:
(§1) MCF 7 cells (4.5×10^4 cells/ml) prepared in a medium comprising RPMI 1640 medium (manufactured by Gibco Co., Ltd.), 10% fetal calf serum, 10 μg/ml insulin and 10^-8 M estradiol (hereinafter referred to as medium A) were put into wells of a 96 well microtiter plate in the amount of 0.1 m(per each well. After culturing at 37° C for 20 hours in a carbon dioxide gas incubator, each test solution appropriately diluted with medium A (0.05 ml) was added thereto. Then, culturing was carried out at 37° C. for an hour in the carbon dioxide gas incubator, and the culture supernatant was removed. After the residue was washed once with […] (composition: 8 g/l NaCl, 0.2 g/l KCl, 1.5 g/l Na2 HPO4 and 0.2 g/l KH2 PO4), 0.1 ml of fresh medium A was added thereto, followed by culturing at 37° C. for 72 hours in the carbon dioxide gas incubator. Then, the culture supernatant was removed and 0.1 ml of a medium comprising medium A and 0.02% Neutral Red was added to the residue, followed by culturing at 37° C. for one hour in the carbon dioxide gas incubator, thereby staining the cells. After removal of the culture supernatant, the residue was washed once with physiological saline. Then, the pigment was extracted with 0.001 N hydrochloric acid/30% ethanol and absorbency at 550 nm was measured with a microplate reader. By comparing the absorbency of intact cells with that of the cells treated with a test solution having a known concentration, a concentration of the test solution which inhibited 50% of growth of the cells (IC50) was calculated.

A further data set deals with Protein Kinase C. The experiment in a line: Protein kinase C inhibitory activity (method of Kikkawa et al.). In kind it is biochemical, rat. The settings on record: for IC50 Protein Kinase C: crude enzyme partially purified from rat brain, [γ-32P]ATP, Histone Type IIS, 30° C., 3 minutes; for selective inhibitory activity on protein kinase C, as compared with Phleichrome: statement on Table 1 (protein kinase C vs protein kinase A). The procedure: Protein kinase C inhibitory activity was measured by the method of Kikkawa, et al. [Journal of Biological Chemistry, 257, 13341 (1982)].
That is, 10 μl of a test solution containing UCN-1028A, UCN-1028C or Phleichrome was added to 250 μl of a solution containing 2.5 μmoles of magnesium acetate, 50 μg of Histone Type IIS (manufactured by Sigma Co., Ltd.), 20 μg of phosphatidyl serine, 0.8 μg of diolein, 25 nmoles of CaCl2, 5 μg of crude enzyme (partially purified from rat brain according to the method of Kikkawa, et al.) and 5 μmoles of Tris-hydrochloride buffer (H 7.5), followed by incubation at 30° C. for 3 minutes. Then, phosphorylation was initiated by addition of 1.25 nmoles of [γ-^32 P]ATP (5 to 10×10^3 cpm/nmole), followed by incubation at 30° C. for 3 minutes. The reaction was stopped by adding 25% trichloroacetic acid (TCA), and the reaction solution was filtered through a cellulose acetate membrane (pore size of 0.45 μm) (manufactured by Toyo Filter Paper Co., Ltd.). After the membrane was washed four times with 5% TCA, radioactivity remaining on the membrane was measured. As a control, the same procedure as above was repeated without addition of the test solution and radioactivity was likewise measured. A concentration of the test solution showing 50% inhibition as compared with the control was expressed as IC50.

The target of the next data set is T1, Protein Kinase A (Bos taurus, UniProt P00517).
T1 construct: partially purified from calf heart; from tissue; host or cells: calf heart (crude enzyme, partially purified by the method of Kuo et al.)
The experiment in a line: Protein kinase A inhibitory activity (method of Kuo et al.). In kind it is biochemical, calf. On the procedure:
Protein kinase A inhibitory activity was measured according to the method of Kuo, et al. [Biochemistry, 64, […].
That is, 10 μl of a test solution was added to 250 μl of a solution containing 5 μmoles of Tris-hydrochloride buffer (pH 6.8), 2.5 μmoles of magnesium acetate, 100 μg of Histone Type IIS (manufactured by Sigma Co., Ltd.), 0.25 nmoles of C-AMP and 200 μg of crude enzyme (partially purified from calf heart according to the method of Kuo, et al.). Subsequent procedures were conducted in a manner similar to the case of measuring protein kinase C inhibitory activity described above to determine IC^50.

The subject of the next data set is HelaS3 cells. The data set can be described thus: Anti-tumor activity: growth inhibition of HelaS3 cells (Neutral Red). It counts as cell-based. The settings on record: Homo sapiens. The procedure: as §1
HelaS3 cells (3×10^4 cells/ml) prepared in a medium comprising MEM medium (manufactured by Nissui Pharmaceutical Co., Ltd.) and 2 mM glutamine were put into wells of a 96 well microtiter plate in the amount of 0.1 ml per each well. In a manner similar to the case of MCF 7 cells described above, IC^50 was calculated.

The mark [1] stands for this setting: MCF7, 1 hour exposure, then 72 hours culture at 37° C., Neutral Red, 550 nm, read-out: IC50 MCF 7 cells.
Where [2] appears, read: HeLa S3, similar to MCF 7 cells, MEM medium, 2 mM glutamine, read-out: IC50 HelaS3 cells.

≈ marks a conversion by molar mass, not a printed value. Like-named read-outs stand apart in the source and are kept apart here.

In general, IC50 refers to the concentration that inhibits the measured activity by half. With `COc1c(CC(C)OC(=O)c2ccccc2)c2c3c(CC(C)OC(=O)c4ccccc4)c(OC)c(=O)c4c(O)cc(OC)c(c5c(OC)cc(O)c(c1=O)c52)c43` (stereo not shown) [UCN-1028A], the IC50 with MCF 7 cells (setting [1]) amounted to 0.21 µg/mL (≈ 0.277 µM). In addition, at Protein Kinase C, the “IC50 Protein Kinase C” value amounted to 0.19 µg/mL (≈ 0.25 µM) and the “selective inhibitory activity on protein kinase C, as compared with Phleichrome” value is “selective inhibitory activity on protein kinase C”. In the data set “Solubility”, the Solubility in acetone entry is “soluble”, the “Solubility in alkaline water” value is recorded as “soluble”, the Solubility in chloroform entry is given as “readily soluble” and the “Solubility in ethyl acetate” value is “readily soluble”. Moreover, in “Solubility”, the Solubility in methanol result was “soluble” and the Solubility in water result was “insoluble”. Further, the Solubility in n-hexane entry in “Solubility” (n-hexane) is recorded as “soluble”. The molecule further showed an IC50 against Protein Kinase A of over 52.7 µM. For the same molecule, in the data set on HelaS3 cells (setting [2]), the IC50 came out at 0.29 µg/mL (≈ 0.382 µM).

Consider `COc1c(CC(C)O)c2c3c(CC(C)O)c(OC)c(=O)c4c(O)cc(OC)c(c5c(OC)cc(O)c(c1=O)c52)c43` (stereo not shown) [Phleichrome, reference compound], for which the IC50 is 0.7 µg/mL (≈ 1.27 µM) in the data set on MCF 7 cells (setting [1]), 59.9 µM against Protein Kinase A and 0.61 µg/mL (≈ 1.11 µM) with HelaS3 cells (setting [2]). Further, on Protein Kinase C, the “IC50 Protein Kinase C” value is 5.5 µg/mL (≈ 9.99 µM).

For `COc1c(CC(C)OC(=O)Oc2ccc(O)cc2)c2c3c(CC(C)OC(=O)c4ccccc4)c(OC)c(=O)c4c(O)cc(OC)c(c5c(OC)cc(O)c(c1=O)c52)c43` (stereo not shown) [UCN-1028C], the IC50 in the data set on MCF 7 cells (MCF7, read-out: IC50 MCF 7 cells) was found to be 0.18 µg/mL (≈ 0.228 µM). Also, at Protein Kinase C, the “IC50 Protein Kinase C” value worked out at 0.07 µg/mL (≈ 0.0885 µM) and the “selective inhibitory activity on protein kinase C, as compared with Phleichrome” value is listed as “selective inhibitory activity on protein kinase C”. Also, the “Solubility in DMSO” value in “Solubility” (DMSO) is “readily soluble”. For the same molecule, in the data set “Solubility”, the Solubility in acetone entry is recorded as “soluble”, the “Solubility in alkaline water” value is given as “soluble”, the Solubility in chloroform entry is “soluble” and the “Solubility in ethyl acetate” value was “soluble”. In “Solubility”, the Solubility in methanol entry is listed as “readily soluble” and the Solubility in water entry was “insoluble”. The IC50 on Protein Kinase A (crude enzyme partially purified from calf heart, Histone Type IIS, C-AMP, pH 6.8, read-out: IC50 Protein Kinase A) was over 50.6 µM. Further, the IC50 in the data set with HelaS3 cells (HeLa S3, read-out: IC50 HelaS3 cells) was determined as 0.19 µg/mL (≈ 0.24 µM).
